Data set [1] has as its system human prostate cancer cell line DU145. As to the kind of experiment: proliferation assay, prostate cancer cell line DU145. The data set is classed as cell-based. The conditions noted are these: DU145 cells cultured with varying amounts of RTX, FIG. 2C. An excerpt: (§1) Proliferation measurements were normalized to an untreated control.
The subject of data set [2] is human DU145 prostate carcinoma cells engrafted s.c. As to the kind of experiment: mouse xenograft tumor model, tumor volume over time. Type of data set: in vivo. Particulars: 0.1, 0.5 and 1 μg/dose, local (peritumoral) every other day from day 28 after engraftment, FIG. 3A. On the procedure:
(§2) FIGS. 3A, 3B and 3C show RTX inhibits prostate carcinoma progression in a cytostatic manner. […] RTX was administered locally (peritumorally) every other day at the indicated dose starting at 28 days after engraftment. The cytostatic activity appeared to be dose-independent in the tested range of 0.1-1 μg/dose. […] Scale, 100 μm. CD31+ blood vessel length and cleaved caspase 3 levels (expressed as median fluorescence intensity, MFI) are quantified in FIG. 3C.

Data set [3] relates to human DU145 prostate carcinoma xenograft tumor tissue. The experiment in a line: H&E staining and immunofluorescence of dissected xenograft tumor tissues. The data set is classed as in vivo, mouse. Particulars: immunofluorescence of tumor tissue, FIG. 3C. The method, then:
as §2
Dissected tumor tissues were assessed by H&E staining and by immunofluorescence for CD31 (tumor vessel marker), DRAQ7 (nuclear marker), and cleaved caspase 3 (apoptotic cell maker). […] (FIG. 3B, upper row). […] (FIG. 3B, middle row).

The subject of data set [4] is human prostate cancer cell line LNCaP. As to the kind of experiment: proliferation assay, prostate cancer cell line LNCaP. The conditions noted are these: LNCaP cells cultured with varying amounts of RTX, FIG. 2C. The data set is classed as cell-based.
From the text: as §1

In data set [5] the test system is tumor associated inflammatory cytokines (IL-6, IFNγ). As to the kind of experiment: cytokine array of xenograft tumor tissue homogenates. The data set is classed as in vivo, mouse. An excerpt: Reduced IL-6 expression in a dose-dependent manner is shown magnified (FIG. 4A).
Some studies of RTX have reported a potential to induce neurologic inflammatory responses. […] Tumor tissue homogenate samples from mouse xenograft tumor models described in Example B were taken at necroptic endpoint and analyzed for tumor associated inflammatory cytokine levels using a cytokine array (FIG. 4A).

Take `C=C(C)[C@]12C[C@@H](C)[C@@]34O[C@](Cc5ccccc5)(O[C@@H]1[C@@H]3C=C(COC(=O)Cc1ccc(O)c(OC)c1)C[C@]1(O)C(=O)C(C)=C[C@@H]41)O2` [RTX, Resiniferatoxin]: the “proliferation (normalized to untreated control)” value in data set [1] and in data set [4] was “dose-dependent decreases in proliferation” each time. The “cytostatic efficacy (tumor volume)” value in data set [2] is “potent cytostatic efficacy in a dose-independent manner”. The “tumor cell apoptosis (cleaved caspase 3 staining)” value in data set [3] (FIG. 3B lower row) is reported as “tumor cell apoptosis increased”. Besides, the “CD31+ tumor vasculature” value in data set [3] (FIG. 3B middle row) is “decreased contiguous CD31+ stained structures”. In data set [5] (tumor homogenates taken at necroptic endpoint, FIG. 4A), the “Cytokine Release Syndrome (inflammatory cytokine expression)” value was “no indication of Cytokine Release Syndrome (CRS)”. Also, the IFNγ expression entry in data set [5] (tumor homogenates, cytokine array) was “did not induce elevated expression of IFNγ”. Besides, the IL-6 expression entry in data set [5] (tumor homogenates, higher RTX doses, FIG. 4A-C) is given as “reduced expression”.

The values above are taken from patent US20250000841A1, “Administration of Resiniferatoxin For Treatment of Prostate Cancer” (Sorrento Therapeutics, Inc., priority 2021, published 2025).
